Measurements published in the Kinase Knowledgebase extract (Sharma et al. 2016).
Values joined by “and” are separate entries in the source; they are usually repeats but may differ in a detail not shown here. Equal values may be shown once.

Target: PIK3CD (Human) (UniProt O00329)
Assay: Enzyme Assay

Chain of PIK3CD (Human) (O00329 whole entry, looked up): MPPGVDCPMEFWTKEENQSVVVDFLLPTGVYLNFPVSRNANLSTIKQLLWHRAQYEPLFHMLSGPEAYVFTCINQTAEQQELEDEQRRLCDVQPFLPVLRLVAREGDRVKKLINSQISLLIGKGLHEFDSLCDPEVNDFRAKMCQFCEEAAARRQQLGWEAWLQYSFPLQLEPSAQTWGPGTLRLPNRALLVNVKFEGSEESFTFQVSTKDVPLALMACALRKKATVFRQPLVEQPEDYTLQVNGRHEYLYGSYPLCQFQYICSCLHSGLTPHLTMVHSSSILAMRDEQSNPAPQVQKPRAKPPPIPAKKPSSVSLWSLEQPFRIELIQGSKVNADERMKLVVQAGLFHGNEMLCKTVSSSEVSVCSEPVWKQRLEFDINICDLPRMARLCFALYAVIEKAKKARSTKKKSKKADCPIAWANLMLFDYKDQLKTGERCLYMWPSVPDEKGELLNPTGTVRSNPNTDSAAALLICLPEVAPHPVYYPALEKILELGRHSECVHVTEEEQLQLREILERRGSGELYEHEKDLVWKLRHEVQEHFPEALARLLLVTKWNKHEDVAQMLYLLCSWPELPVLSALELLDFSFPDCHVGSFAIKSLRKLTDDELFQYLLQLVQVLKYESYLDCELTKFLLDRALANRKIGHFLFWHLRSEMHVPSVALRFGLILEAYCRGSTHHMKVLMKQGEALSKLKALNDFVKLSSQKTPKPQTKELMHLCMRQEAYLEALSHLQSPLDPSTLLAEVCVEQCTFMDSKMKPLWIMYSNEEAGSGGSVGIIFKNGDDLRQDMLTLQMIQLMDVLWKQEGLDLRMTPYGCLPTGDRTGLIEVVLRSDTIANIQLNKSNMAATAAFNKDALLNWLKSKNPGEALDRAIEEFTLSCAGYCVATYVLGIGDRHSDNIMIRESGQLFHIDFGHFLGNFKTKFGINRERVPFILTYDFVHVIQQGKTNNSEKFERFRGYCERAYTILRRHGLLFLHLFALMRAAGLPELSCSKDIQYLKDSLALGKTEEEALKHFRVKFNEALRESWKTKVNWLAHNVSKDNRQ

| Compound | IC50 |
| --- | --- |
| CCn1c(-c2cnc(C)nc2)nc2c(O[C@H]3CCN(c4cccnc4)C3)ncnc21 | 10 nM |
| CCC(=O)N1CC[C@H](Oc2ncnc3c2nc(C(F)(F)F)n3C)C1 | 430 nM |
| CCn1c(-c2ccc(OC)c(F)c2)nc2c(O[C@H]3CCN(C(=O)C4CC4)C3)ncnc21 | 2.2 nM |
| CCn1c(-c2ccc(OC)nc2)nc2c(O[C@H]3CCN(C(=O)C4CCOCC4)C3)ncnc21 | 1.6 nM |
| CCn1ncc(-c2nc3c(O[C@H]4CCN(C(=O)c5cncn5C)C4)ncnc3n2C)c1C | 5.4 nM |
| CCn1ncc(-c2nc3c(O[C@H]4CCN(C(=O)c5ccn[nH]5)C4)ncnc3n2C)c1C | 3 nM |
| CCn1ncc(-c2nc3c(O[C@H]4CCN(C(=O)Oc5ccc6ccccc6c5)C4)ncnc3n2C)c1C | 110 nM |
| CCn1ncc(-c2nc3c(O[C@H]4CCN(C(=O)OCc5ccccc5)C4)ncnc3n2C)c1C | 14 nM |
| CCC(=O)N1CC[C@H](Oc2ncnc3c2nc(-c2cnc(C)nc2)n3CC)C1 | 13 nM |
| CCn1ncc(-c2nc3c(O[C@H]4CCN(C(=O)C5CCC5)C4)ncnc3n2C)c1C | 7 nM |
| CCn1ncc(-c2nc3c(O[C@H]4CCN(C(=O)c5cc6ncccc6[nH]5)C4)ncnc3n2C)c1C | 1900 nM |
| CCn1c(-c2cnc(C)nc2)nc2c(O[C@H]3CCN(c4cnccn4)C3)ncnc21 | 32 nM |
| CCn1c(-c2cnc(OC)c(F)c2)nc2c(O[C@H]3CCN(C(=O)c4ccn(C)n4)C3)ncnc21 | < 1 nM |
| CCn1ncc(-c2nc3c(O[C@H]4CCN(C(=O)c5nccn5C)C4)ncnc3n2C)c1C | 35 nM |
| CCn1c(-c2cnc(C)nc2)nc2c(O[C@H]3CCN(C(=O)N4CCC(CO)C4)C3)ncnc21 (some centres not stated) | 9.5 nM |
| CCn1c(-c2cnc(C)nc2)nc2c(O[C@H]3CCN(C(=O)C4CC4)[C@@H]3C)ncnc21 | 2.8 nM |
| CCn1c(-c2cnc(C)c(F)c2)nc2c(O[C@H]3CCN(C(=O)C4CC4)C3)ncnc21 | 4.3 nM |
| CCn1ncc(-c2nc3c(O[C@H]4CCN(C(=O)c5nonc5C)C4)ncnc3n2C)c1C | 26 nM |
| CCn1c(-c2cnc(OC)c(F)c2)nc2c(O[C@H]3CCN(C(=O)C4CC4)C3)ncnc21 | < 1 nM |
| CCn1c(-c2cnc(C)nc2)nc2c(O[C@H]3CCN(C(=O)C4[C@@H](C)[C@H]4C)C3)ncnc21 (some centres not stated) | 12 nM |
| CCn1ncc(-c2nc3c(O[C@H]4CCN(C(=O)c5cnon5)C4)ncnc3n2C)c1C | 41 nM |
| CCn1c(-c2cnc(C)nc2)nc2c(O[C@H]3CCN(C(=O)N4CC5CC5C4)C3)ncnc21 (some centres not stated) | 5.7 nM |
| CCn1c(-c2cnc(C)nc2)nc2c(O[C@H]3CCN(C(=O)[C@H]4CCC[C@H]4N)C3)ncnc21 | 25 nM |

| Compound | IC50 |
| --- | --- |
| CCC(=O)N1CC[C@H](Oc2ncnc3c2nc(Oc2cccc(C)c2C)n3C)C1 | 2400 nM |
| CCOC(=O)N1CC[C@H](Oc2ncnc3c2nc(-c2cnc(C)nc2)n3CC)C1 | 18 nM |
| CCn1c(-c2ccc(OC(F)F)nc2)nc2c(O[C@H]3CCN(C(=O)OC(C)(C)C)C3)ncnc21 | 15 nM |
| CCC(=O)N1CC[C@H](Oc2ncnc3c2nc(-c2cncc(N)c2)n3C)C1 | 5.7 nM |
| CCn1ncc(-c2nc3c(O[C@H]4CCN(C(=O)C(C)C)C4)ncnc3n2C)c1C | 4 nM |
| CCn1ncc(-c2nc3c(O[C@H]4CCN(C(=O)c5coc(C)n5)C4)ncnc3n2C)c1C | 6.5 nM |
| CCn1c(-c2cnc(OC)c(Cl)c2)nc2c(O[C@H]3CCN(C(=O)C4CC4)C3)ncnc21 | < 1 nM |
| CCn1c(-c2cnc(C)nc2)nc2c(O[C@H]3CCN(C(=O)[C@@H]4CCC[C@H]4N)C3)ncnc21 | 39 nM |
| Cn1cnc2c(O[C@H]3CCN(C(=O)OC(C)(C)C)C3)ncnc21 | 1400 nM |
| CCC(=O)N1CC[C@H](Oc2ncnc3c2nc(-c2cnn(CC)c2C)n3C)C1 | 12 nM |
| CCn1ncc(-c2nc3c(O[C@H]4CCN(C(=O)c5cc6occc6[nH]5)C4)ncnc3n2C)c1C | 210 nM |
| CCn1ncc(-c2nc3c(O[C@H]4CCN(C(=O)c5ccc(C)nc5)C4)ncnc3n2C)c1C | 70 nM |
| CCC(=O)N1CC[C@H](Oc2ncnc3c2nc(-c2cnn(C(C)(C)C)c2)n3C)C1 | 4.7 nM |
| CCn1c(-c2cnc(C)nc2)nc2c(O[C@H]3CCN(C(=O)C4(N)CCC4)C3)ncnc21 | 50 nM |
| CCC(=O)N1CC[C@H](Oc2ncnc3c2nc(-c2cc(O)cc(F)c2)n3C)C1 | 3.8 nM |
| CCn1ncc(-c2nc3c(OC4CCN(C(=O)c5ccccc5)C4)ncnc3n2C)c1C (configuration not stated) | 68 nM |
| Cn1c(-c2ccc(-n3cccn3)cc2)nc2c(O[C@H]3CCN(C(=O)OC(C)(C)C)C3)ncnc21 | 30 nM |
| CCn1ncc(-c2nc3c(O[C@H]4CCN(C(=O)c5cn6cccnc6n5)C4)ncnc3n2C)c1C | 100 nM |
| CCn1ncc(-c2nc3c(OC4CCN(C(=O)CC5CCOCC5)C4)ncnc3n2C)c1C (configuration not stated) | 31 nM |
| CCn1ncc(-c2nc3c(O[C@H]4CCN(C(=O)c5cnn6cccnc56)C4)ncnc3n2C)c1C | 11 nM |
| Cc1cc2cccc(-c3nc4c(O[C@H]5CCN(C(=O)OC(C)(C)C)C5)ncnc4n3C)c2[nH]1 | 660 nM |
| CCN(C)C(=O)N1CC[C@H](Oc2ncnc3c2nc(-c2cnc(C)nc2)n3CC)C1 | 10 nM |
| CCn1ncc(-c2nc3c(O[C@H]4CCN(c5cc(-n6cc(C)cn6)ncn5)C4)ncnc3n2C)c1C | 160 nM |

| Compound | IC50 |
| --- | --- |
| CCC(=O)N1CC[C@H](Oc2ncnc3c2nc(-c2ccc4cn[nH]c4c2)n3C)C1 | 7.2 nM |
| CCn1ncc(-c2nc3c(O[C@H]4CCN(c5ncccn5)C4)ncnc3n2C)c1C | 21 nM |
| CCn1ncc(-c2nc3c(O[C@H]4CCN(C(=O)c5c(C)noc5C)C4)ncnc3n2C)c1C | 88 nM |
| CCC(=O)N1CC[C@H](Oc2ncnc3c2nc(C(F)(F)F)n3CC)C1 | 99 nM |
| CCn1ncc(-c2nc3c(O[C@H]4CCN(C(=O)OC(C)(C)C)C4)ncnc3n2C)c1C | 4.3 nM |
| CCn1c(-c2cnc(C)nc2)nc2c(O[C@H]3CCN(C(=O)N4CC(F)C4)C3)ncnc21 | 5.1 nM |
| CCn1c(-c2cnc(C)nc2)nc2c(O[C@H]3CCN(C(=O)N4CCC(F)(F)C4)C3)ncnc21 | 14 nM |
| CCn1ncc(C(=O)N2CC[C@H](Oc3ncnc4c3nc(-c3cnn(CC)c3C)n4C)C2)c1C | 29 nM |
| CCC(=O)N1CC[C@H](Oc2ncnc3c2nc(-c2ccc(C)nc2)n3C)C1 | 66 nM |
| CCC(=O)N1CC[C@H](Oc2ncnc3c2nc(-c2ccc4cc[nH]c4c2)n3C)C1 | 120 nM |
| CCn1ncc(-c2nc3c(O[C@H]4CCN(c5ncnc6ccsc56)C4)ncnc3n2C)c1C | 12 nM |
| CCn1ncc(-c2nc3c(O[C@H]4CCN(C(=O)C5CC(=O)N(C(C)C)C5)C4)ncnc3n2C)c1C (some centres not stated) | 10 nM |
| CCn1c(-c2cnc(C)nc2)nc2c(O[C@H]3CCN(c4ccccc4)C3)ncnc21 | 9.1 nM |
| CCn1c(-c2cnc(C)nc2)nc2c(O[C@H]3CCN(C(=O)[C@@H](N)C(C)C)C3)ncnc21 | 9.8 nM |
| CCCn1c(-c2cnc(C)nc2)nc2c(O[C@H]3CCN(C(=O)CC)C3)ncnc21 | 130 nM |
| CCn1c(-c2cnc(C)nc2)nc2c(O[C@H]3CCN(C(=O)C4CC(C)C4)C3)ncnc21 (some centres not stated) | 1.3 nM |
| CCn1c(-c2cnc(C)nc2)nc2c(O[C@H]3CCN(C(=O)N4CCCCC4)C3)ncnc21 | 21 nM |
| CCC(=O)N1CC[C@H](Oc2ncnc3c2nc(-c2cnn4c2CCC4)n3C)C1 | 23 nM |
| CCn1ncc(-c2nc3c(O[C@H]4CCN(c5nncc6ccccc56)C4)ncnc3n2C)c1C | 17 nM |
| CCn1ncc(-c2nc3c(O[C@H]4CCN(C(=O)N[C@H](C)c5ccccc5)C4)ncnc3n2C)c1C | 630 nM |
| CCn1ncc(-c2nc3c(O[C@H]4CCN(C(=O)c5oncc5C)C4)ncnc3n2C)c1C | 5.1 nM |
| CCn1ncc(-c2nc3c(CC4CCN(C(=O)C5CCOCC5)C4)ncnc3n2C)c1C (configuration not stated) | 290 nM |
| CCn1ncc(-c2nc3c(O[C@H]4CCN(C(=O)c5cnn6ccccc56)C4)ncnc3n2C)c1C | 130 nM |

| Compound | IC50 |
| --- | --- |
| CCn1c(-c2cnc(C)nc2)nc2c(OC3CN(C(=O)C4CC4)CC3C)ncnc21 (configuration not stated) | 2.9 nM |
| CCn1ncc(-c2nc3c(O[C@H]4CCN(C(=O)c5nnc6n5CCCC6)C4)ncnc3n2C)c1C | 240 nM |
| CCn1c(-c2cnc(C)nc2)nc2c(O[C@H]3CCN(C(=O)C4CC4C)C3)ncnc21 (some centres not stated) | 1.5 nM |
| CCn1c(N(C)CCOC)nc2c(O[C@H]3CCN(C(=O)OC(C)(C)C)C3)ncnc21 | 920 nM |
| CCC(=O)N1CC[C@H](Oc2ncnc3c2nc(-c2cnn(CC)c2C)n3C2CC2)C1 | 160 nM |
| CCn1ncc(-c2nc3c(O[C@H]4CCCN(C(=O)OC(C)(C)C)C4)ncnc3n2C)c1C | 94 nM |
| CCn1ncc(-c2nc3c(OC4CCC(C(=O)N5CCOCC5)C4)ncnc3n2C)c1C (configuration not stated) | 220 nM |
| CCn1ncc(-c2nc3c(O[C@H]4CCN(C(=O)c5ccnn5C(C)C)C4)ncnc3n2C)c1C | 23 nM |
| CCn1c(-c2cnc(C)nc2)nc2c(O[C@H]3CN(C(=O)C4CC4)C[C@@H]3O)ncnc21 | 17 nM |
| CCOC(=O)C(C)NC(=O)N1CC[C@H](Oc2ncnc3c2nc(-c2cnn(CC)c2C)n3C)C1 (some centres not stated) | 110 nM |
| CCn1ncc(-c2nc3c(O[C@H]4CCN(C(C)=O)C4)ncnc3n2C)c1C | 56 nM |
| COc1ncc(-c2nc3c(O[C@H]4CCN(C(=O)OC(C)(C)C)C4)ncnc3n2C)cc1C | 2.6 nM |
| CCn1c(N2CCC(c3ccccc3)CC2)nc2c(O[C@H]3CCN(C(=O)OC(C)(C)C)C3)ncnc21 | 120 nM |
| CCn1ncc(-c2nc3c(O[C@H]4CCN(C(=O)c5oc(C)nc5C)C4)ncnc3n2C)c1C | 3.7 nM |
| CCC(=O)N1CC[C@H](Sc2ncnc3c2nc(-c2cnn(CC)c2C)n3C)C1 | 11 nM |
| CCn1ncc(-c2nc3c(OC4CC(C)N(C(=O)OC(C)(C)C)C4)ncnc3n2C)c1C (configuration not stated) | 1300 nM |
| CCn1c(-c2cnc(C)nc2)nc2c(OC3CN(Cc4ccccc4)CC3(C)C)ncnc21 (configuration not stated) | 28 nM |
| CCn1c(-c2cnc3[nH]ccc3c2)nc2c(O[C@H]3CCN(C(=O)C4CC4)C3)ncnc21 | < 1 nM |
| CCn1c(-c2cnc(N(C)C)nc2)nc2c(O[C@H]3CCN(C(=O)C4CC4)C3)ncnc21 | 23 nM |
| CCn1ncc(-c2nc3c(O[C@H]4CCN(C(=O)NC5CCCCC5)C4)ncnc3n2C)c1C | 230 nM |
| CCn1c(-c2cnc(C(C)(C)C)s2)nc2c(O[C@H]3CCN(C(=O)OC(C)(C)C)C3)ncnc21 | 0.5 nM |
| CCn1ncc(-c2nc3c(O[C@H]4CCN(C(=O)c5cc(C)n(C)n5)C4)ncnc3n2C)c1C | 150 nM |
| CC[C@@H]1CN(C(=O)C2CC2)C[C@H]1Oc1ncnc2c1nc(-c1cnc(C)nc1)n2CC.CC[C@H]1CN(C(=O)C2CC2)C[C@@H]1Oc1ncnc2c1nc(-c1cnc(C)nc1)n2CC | 6.1 nM and 20 nM |
